Experimental data from patent publication US7326786B2, “Thiazolinone unsubstituted quinolines” (Hoffmann-La Roche Inc., priority 2004, dated 2008).

Target: T1, recombinant human CDK1/Cyclin B complex (Homo sapiens, UniProt P06493)
T1 construct: made in house; host or cells: High Five insect cells (baculovirus) for CDK1/GST-cyclin B; E. coli M15 for the Rb substrate
Assay: CDK1/Cyclin B kinase assay (FlashPlate or HTRF)
Format: biochemical
Conditions: Rb protein substrate, Ki=IC50/(1+[S]/Km)
Protocol: To determine inhibition of CDK1 activity, either FlashPlate™ (NEN™-Life Science Products) assay or HTRF Homogeneous Time Resolved Fluorescence assay was performed. Both types of kinase assays were carried out using recombinant human CDK1/Cyclin B complex. GST-cyclinB (GST-cycB) and CDK1 cDNA clones in baculovirus vectors were provided by Dr. W. Harper at the Baylor College of Medicine, Houston, Tex. Proteins were co-expressed in High Five™ insect cells and the complex was purified on glutathione Sepharose resin (Pharmacia, Piscataway, N.J.) as previously described (Harper, J. W. et al. Cell 1993, 75, 805-816). A 6×-Histidine tagged truncated form of retinoblastoma (Rb) protein (amino acid 386-928) was used as the substrate for the CDK1/Cyclin B assay (the expression plasmid was provided by Dr. Veronica Sullivan, Department of Molecular Virology, Roche Research Centre, Welwyn Garden City, United Kingdom). The Rb protein is a natural substrate for phosphorylation by CDK1 (see Herwig and Strauss Eur. J. Biochem. Vol. 246 (1997) pp. 581-601 and the references cited therein). The expression of the 62Kd protein was under the control of an IPTG inducible promoter in an M15 E. coli strain. Cells were lysed by sonication and purification was carried out by binding lysates at pH 8.0 to a Ni-chelated agarose column pretreated with 1 mM imidazole. The resin was then washed several times with incrementally decreasing pH buffers to pH 6.0, and eluted with 500 mM imidazole. Eluted protein was dialysed against 20 mM HEPES [4-(2-hydroxyethyl)-1-piperazineethanesulfonic acid, sodium salt] pH 7.5, 30% glycerol, 200 mM NaCl, and 1 mM DTT (dithiothreitol). Purified Rb fusion protein stocks were quantitated for protein concentration, aliquoted, and stored at −70° C.
For the FlashPlate kinase asasy, 96-well FlashPlates were coated with Rb protein at 10 μg/ml, using 100 μl per well. Plates were incubated at 4° C. overnight or at room temperature for 3 hours on a shaker. To control for nonspecific phosphorylation, one row of wells was coated with 100 μl/well coating buffer (20 mM HEPES, 0.2 M NaCl). Plates were then washed twice with wash buffer (0.01% Tween 20 in phosphate-buffered saline). Compounds to be tested (“test compounds”) were added to the wells at 5× final concentration. Reactions were initiated by immediate addition of 40 μl reaction mix (25 mM HEPES, 20 mM MgCl2, 0.002% Tween 20, 2 mM DTT, 1 μM ATP, 4 nM 33P-ATP) and a sufficient amount of enzyme to give counts that were at least 10-fold above background. Plates were incubated at room temperature on a shaker for 30 minutes. Plates were washed four times with the wash buffer, sealed, and counted on the TopCount scintillation counter (Packard Instrument Co., Downers Grove, Ill.]. The percent inhibition of Rb phosphorylation, which is a measure of the inhibition of CDK activity, was determined according to the following formula:
[formula] where “test compound” refers to the average counts per minute of the test duplicates, “nonspecific” refers to the average counts per minute when no CDK1/Cyclin B, etc., was added, and “total” refers to the average counts per minute when no compound was added. The IC50 value is the concentration of test compound that reduces by 50% the protein-kinase induced incorporation of the radiolabel under the test conditions described. The value of the inhibitor constant Ki is calculated by the following: Ki=IC50/(1+[S]/Km), where [S] is the ATP concentration and Km is Michaelis constant.
The Homogeneous Time Resolved Fluorescence (HTRF) kinase assay was carried out in 96-well polypropylene plates (BD Biosciences, Bedford, Mass.). Test compounds were first dissolved in DMSO, and then diluted in kinase assay buffer 1 (25 mM HEPES, pH7.0, 8 mM MgCl2, 1.5 mM DTT, and 162 μM ATP) with DMSO concentration at 15%. The CDK1/Cyclin B enzyme was diluted in kinase assay buffer 2 (25 mM HEPES, pH 7.0, 8 mM MgCl2, 0.003% Tween 20, 0.045% BSA, 1.5 mM DTT, and 0.338 μM Rb protein). […]

T1 sequence (P06493 whole entry): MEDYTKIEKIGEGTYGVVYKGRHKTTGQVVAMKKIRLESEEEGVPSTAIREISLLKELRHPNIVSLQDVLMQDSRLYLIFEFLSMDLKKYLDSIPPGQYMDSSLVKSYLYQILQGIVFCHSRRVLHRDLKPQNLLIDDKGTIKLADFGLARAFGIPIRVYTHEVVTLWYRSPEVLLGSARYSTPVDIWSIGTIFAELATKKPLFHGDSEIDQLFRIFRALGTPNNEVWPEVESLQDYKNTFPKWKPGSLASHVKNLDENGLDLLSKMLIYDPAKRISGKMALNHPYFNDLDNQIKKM
T1 sequence (P14635 whole entry partner): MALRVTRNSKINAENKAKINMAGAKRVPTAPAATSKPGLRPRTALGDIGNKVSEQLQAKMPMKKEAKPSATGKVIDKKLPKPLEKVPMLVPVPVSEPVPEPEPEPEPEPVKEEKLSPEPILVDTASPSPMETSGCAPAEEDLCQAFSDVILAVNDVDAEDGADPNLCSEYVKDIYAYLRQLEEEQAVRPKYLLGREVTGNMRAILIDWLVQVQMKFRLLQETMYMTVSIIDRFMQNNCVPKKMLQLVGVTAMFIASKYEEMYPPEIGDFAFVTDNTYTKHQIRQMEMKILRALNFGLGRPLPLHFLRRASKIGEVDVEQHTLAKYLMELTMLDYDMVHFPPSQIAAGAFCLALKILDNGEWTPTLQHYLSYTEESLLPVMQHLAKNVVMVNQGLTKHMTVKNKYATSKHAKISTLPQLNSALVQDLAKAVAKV

Structure (SMILES): COc1ccc(OC)c(CCNC2=NC(=O)/C(=C/c3ccc4ncccc4c3)S2)c1 [Example 5, 2-[2-(2,5-Dimethoxy-phenyl)-ethylamino]-5-[1-quinolin-6-yl-meth-(Z)-ylidene]-thiazol-4-one]
- Ki: 838 nM

Structure (SMILES): COc1ccccc1CNC1=NC(=O)/C(=C/c2ccc3ncccc3c2)S1 [Example 10, 2-(2-Methoxy-benzylamino)-5-[1-quinolin-6-yl-meth-(Z)-ylidene]-thiazol-4-one]
- Ki: 148 nM

Structure (SMILES): O=C1N=C(N[C@@H](CO)Cc2ccccc2)S/C1=C\c1ccc2ncccc2c1 [Example 20, 2-((R)-1-Hydroxymethyl-2-phenyl-ethylamino)-5-[1-quinolin-6-yl-meth-(Z)-ylidene]-thiazol-4-one]
- Ki: 604 nM

Structure (SMILES): O=C1N=C(NC(CO)c2cccs2)S/C1=C\c1ccc2ncccc2c1 (stereo not drawn) [Example 25, 2-(2-Hydroxy-1-thiophen-2-yl-ethylamino)-5-[1-quinolin-6-yl-meth-(Z)-ylidene]-thiazol-4-one]
- Ki: 596 nM

Structure (SMILES): O=C1N=C(N[C@@H]2c3ccccc3C[C@@H]2O)S/C1=C\c1ccc2ncccc2c1 [Example 30, 2-((1R,2S)-2-Hydroxy-indan-1-ylamino)-5-[1-quinolin-6-yl-meth-(Z)-ylidene]-thiazol-4-one]
- Ki: 3000 nM

Structure (SMILES): O=C1N=C(NCC(c2ccccc2)N2CCOCC2)S/C1=C\c1ccc2ncccc2c1 (stereo not drawn) [Example 35, 2-(2-Morpholin-4-yl-2-phenyl-ethylamino)-5-[1-quinolin-6-yl-meth-(Z)-ylidene]-thiazol-4-one]
- Ki: 3300 nM
